PubChem BioAssay AID1996
In brackets after ≈: the same amount, converted by molar mass.

Conditions: buffer; pH 7.4; 200.0 µM

Structure (SMILES)	solubility kinetic [µg/mL]
O=C(O)CCN1C(=O)S/C(=C\c2cccnc2)C1=O	> 41.7
COc1cc([N+](=O)[O-])ccc1N1C(=O)CC(Sc2nccc(C)n2)C1=O (stereo not given)	> 56.2
Cc1sc(N)nc1-c1ccc2c(c1)OCCO2	19.5 (≈ 78.5 µM)
COC(=O)CNc1nc(Cl)nc(N2CCC(C)CC2)n1	39.5 (≈ 132 µM)
CCc1ccc(NC(=O)COC(=O)CCC2CCCC2)cc1	7.9 (≈ 26 µM)
Clc1ccc(-c2csc(-c3ccncc3)n2)cc1	0.3 (≈ 1.1 µM)
COc1cc(C(=O)NCC(=O)OCc2ccc(F)cc2)cc(OC)c1OC	11.8 (≈ 31.3 µM)
Cc1ccc(NS(=O)(=O)c2ccc(-c3csc(C)n3)s2)c(C)c1	< 0.4
O=C(O)c1cccc(NC2=C(N3CCOCC3)C(=O)c3ccccc3C2=O)c1	> 56.8
COc1ccc(C(C)(C)C)cc1NC(=O)c1ccc[n+]([O-])c1	> 45.1
Cc1ccc(C(=O)Nc2ncc(C)s2)s1	7.1 (≈ 29.8 µM)
CCOC(=O)C1CCCN(c2c(NCCc3ccccc3)c(=O)c2=O)C1 (stereo not given)	25.5 (≈ 71.5 µM)
CN1CCN(S(=O)(=O)Cc2ccc(Cl)cc2)CC1	33.8 (≈ 117 µM)
Cc1cccc(CCNCc2cc3cc(C)cc(C)c3[nH]c2=O)c1	42.5 (≈ 133 µM)
COc1ccc(C(C)(C)C)cc1NC(=O)C1CCCO1 (stereo not given)	41.5 (≈ 150 µM)
Cc1cc(N2CCOCC2)nc(C(C)C)n1	32.4 (≈ 146 µM)
O=C(Cc1ccsc1)Nc1ccc2c(c1)OCO2	> 39.2
O=C1NC2(CCCCCC2)C(=O)N1Cc1ccccc1Cl	6.8 (≈ 22.2 µM)
Cc1ccc(NC(=S)NC2CCCC2)c(C)c1	33.3 (≈ 134 µM)
Cc1ccc2nc(-c3ccc(Br)cc3)cn2c1	< 0.3
Cc1cccc(C(=O)NCC(=O)OCC(=O)c2ccc(Cl)s2)c1	> 52.8
O=C1OCCN/C1=C\C(=O)c1ccc(Cl)cc1	> 37.8
CCOC(=O)Cc1csc(NC(=O)/C=C/c2ccccc2Cl)n1	< 0.4
CS(=O)(=O)O.c1cnc(N2CCN(Cc3ccc4c(c3)OCO4)CC2)nc1	> 59.2

Structure (SMILES)	solubility kinetic [µg/mL]
CCOC(=O)CNc1ccc(OC(F)(F)F)cc1	7.2 (≈ 27.4 µM)
COc1ccc(C(=O)NCCN2CCOCC2)c(OC)c1	> 44.2
COCC(=O)N1CCCC(N(C)CCc2ccc(OC)c(OC)c2)C1 (stereo not given)	> 52.6
O=S(=O)(c1cccc(-c2n[nH]c(=S)n2-c2ccccc2Cl)c1)N1CCOCC1	> 65.5
CSCC(=O)Nc1cc(C)on1	> 27.9
O=C(NC1CCCCC1)C1CCCN1C(=O)Nc1ccccc1 (stereo not given)	> 47.3
CCCC(C)NC(=O)c1sc2nc3n(c(=O)c2c1C)CCC3 (stereo not given)	> 47.9
Cc1cnc(NC(=O)Cc2ccc(C)c(C)c2)s1	2 (≈ 7.68 µM)
C/C(CCC1CC(C)OC1=O)=N\NC(N)=S (stereo not given)	> 36.5
Cc1cc(C)cc(OCC(=O)Nc2ccc3c(c2)OCCO3)c1	2 (≈ 6.38 µM)
COCCNC(=S)N1CCN(Cc2ccc3c(c2)OCO3)CC1	47 (≈ 139 µM)
COc1ccc(-c2noc(-c3ccoc3C)n2)cc1OC	0.8 (≈ 2.79 µM)
O=C(NC(=S)NCc1ccc(Cl)cc1Cl)c1ccco1	1.4 (≈ 4.25 µM)
O=C(c1ccc(-c2ccccc2)cc1)N1CCN(c2ccc(F)cc2)CC1	2.4 (≈ 6.66 µM)
Cc1cc(C)nc(NC2=NCCN2C(=S)Nc2c(C)cccc2C)n1	17.7 (≈ 49.9 µM)
O=C(NC(Cc1ccccc1)C(=O)O)NC12CC3CC(CC(C3)C1)C2 (stereo not given)	> 51.4
Clc1cc(NC2CCCCC2)ncn1	> 31.8
COc1cc2nc(NC(=O)c3ccc(Cl)cc3)sc(=O)c2cc1OC	3.7 (≈ 9.82 µM)
CCCCn1c(NC(=O)c2ccco2)c(C(=O)OCC)c2nc3ccccc3nc21	4.9 (≈ 12.1 µM)
CCN(C(=O)C1=COCCO1)c1nc2c(C)cccc2s1	7.5 (≈ 24.6 µM)
CCCc1cc(=O)[nH]c(SCC(=O)Nc2ccc(C)cc2)n1	3.1 (≈ 9.77 µM)
Cc1ccc(C(=O)NC(=S)NCC2CCCO2)cc1[N+](=O)[O-] (stereo not given)	> 48.5
CCN(CC)S(=O)(=O)c1ccc(Cl)c(NC2=NCCCCC2)c1	32.9 (≈ 91.9 µM)
C=C1SC(Nc2c(C)cccc2C)=NC12CCCCC2	< 0.3

Structure (SMILES)	solubility kinetic [µg/mL]
Cc1nc(SCC(=O)NC2CCCC2)[nH]c(=O)c1C	38.4 (≈ 136 µM)
CCC(=O)N(CCC1(c2ccccc2OC)CCOC(C(C)C)C1)Cc1ccco1 (stereo not given)	21.4 (≈ 51.7 µM)
COCc1cc(OC)nc(-c2csc(C)n2)n1	32.5 (≈ 129 µM)
FCCCOc1ccc(CN2CCN(c3ccccc3F)CC2)cc1	19.5 (≈ 56.3 µM)
Cc1ccc(S(=O)(=O)N2CCOCC2)cc1C(=O)N1CCCC1	> 50.8
Cc1cc2nc(C)c3c(n2n1)CCC3	> 28.1
Cc1oc(/N=C/c2ccccc2)c(C#N)c1C	9.2 (≈ 41 µM)
Cc1ccc(CSCc2ccc(C(=O)NC3CC3)o2)cc1	> 45.2
NS(=O)(=O)c1ccc(NC(=O)c2ccc(S(=O)(=O)N3CCCCC3)cc2)cc1	2.1 (≈ 4.96 µM)
COc1ccc2oc(N)c(C=O)c(=O)c2c1	30.8 (≈ 141 µM)
O=C(Nc1cccc(Cl)c1)N1CCCCCC1	5.1 (≈ 20.2 µM)
CC(=O)N1C(C)(C)CC(=NOC(=O)c2ccc(C)cc2)CC1(C)C	> 49.6
CCOC(=O)/C(C#N)=C/C1=C(N2CCOCC2)CC(C)(C)OC1	> 48.1
CC(=O)c1sc(NC(=O)c2ccc3c(c2)OCO3)nc1C	0.9 (≈ 2.96 µM)
CC1CCCC(NC(=O)c2ccc3c(c2)OCO3)C1C (stereo not given)	> 41.3
Cc1ccnc(NC(=O)c2cnc(Cl)c(Cl)c2)c1	6.4 (≈ 22.7 µM)
COc1ccc(OC)c(/C=C/C(=O)NC2=NCCS2)c1	4 (≈ 13.7 µM)
O=C(CCN1C(=O)C2CC=CCC2C1=O)Nc1nccs1 (stereo not given)	> 45.8
O=C(Cc1ccc(F)cc1)NC1CCSC1=O (stereo not given)	> 38
CNC(=O)COC(=O)c1cc2c(s1)CCCC2	> 38
CN(C)/C=C/C(=O)c1cc(N2CCOCC2)ccc1[N+](=O)[O-]	> 45.8
CCOC(=O)C1(Cc2ccccc2C)CCCN(C(=O)COC)C1 (stereo not given)	35.6 (≈ 107 µM)
Clc1nssc1=Nc1ccc(Br)cc1	1.4 (≈ 4.55 µM)
COC(=O)c1ccc(C(=O)N=c2sccn2C)cc1	13.9 (≈ 50.3 µM)

Further lines, results first:

solubility kinetic [µg/mL]	Structure (SMILES)
16.9 (≈ 48.7 µM)	CCC(C(=O)OC(C)C(=O)Nc1ccc(Cl)cn1)c1ccccc1 (stereo not given)
5.4 (≈ 12.4 µM)	O=C(Nc1cc(S(=O)(=O)N2CCCCC2)ccc1Cl)C1COc2ccccc2O1 (stereo not given)
4.1 (≈ 11.3 µM)	CC(=O)C1=C(Nc2ccccc2)CC(C)(O)C(C(C)=O)C1c1ccccc1 (stereo not given)
43.9 (≈ 136 µM)	Cc1csc(NC(=O)CCNC(=O)c2ccccc2Cl)n1
9.9 (≈ 27.2 µM)	CN(CC(=O)Nc1cccc(F)c1)C(=O)/C=C/c1ccc2ccccc2n1
< 0.6	COc1ccc(C(=O)Nc2cccc3c2CCCC3)cc1
2.2 (≈ 6.84 µM)	Cc1cc(C(=O)OCC(=O)NCc2ccccc2Cl)c(C)o1
3.3 (≈ 11.1 µM)	COc1ccc(-c2csc(-c3ccccc3)n2)c(OC)c1
0.5 (≈ 1.49 µM)	COc1ccc(CCNC(=O)C(=O)c2c(C)[nH]c3ccccc23)cc1
1.3 (≈ 4.49 µM)	O=C(NCc1ccccc1F)Nc1ccc([N+](=O)[O-])cc1
38.7 (≈ 115 µM)	O=c1ccc(-c2nc3ccccc3n2Cc2ccc(Cl)cc2)c[nH]1
> 55.1	NC(=O)C1CC(=O)N(c2ccc(OCC(=O)NCc3ccccc3)cc2)C1 (stereo not given)
> 55.7	N#Cc1ccccc1OCC(=O)NCC(c1cccs1)N1CCOCC1 (stereo not given)
> 41.4	CC(=O)Nc1ccc(OCC(O)Cn2cncn2)cc1 (stereo not given)
33.6 (≈ 106 µM)	CCN(CC)C(=O)c1ccc(S(=O)(=O)c2ccccc2)cc1
> 61.8	CN(CC(=O)N(C)CC(=O)Nc1c(Cl)cccc1Cl)Cc1ccccc1F
41.8 (≈ 125 µM)	O=C(OC(C(=O)NCc1ccccc1)c1ccccc1)c1ccco1 (stereo not given)
6.4	Cc1ccc(NS(=O)(=O)c2ccc(C(=O)NC3CCN(Cc4ccccc4)CC3)cc2)cc1.Cl
2 (≈ 6.59 µM)	CC(=O)Nc1nc(-c2ccccc2)cc(-c2ccco2)c1C#N
> 54.3	Cc1cccnc1NC(=O)CCNC(=O)c1ccc(Br)cc1
< 0.2	CCCN1C(=O)/C(=C/c2nc3ccccc3c(=O)[nH]2)c2cc(C)ccc21
4.2 (≈ 13 µM)	Cc1ccc(NC(=O)CCc2ccc(C)o2)c(Br)c1
0.8 (≈ 2.5 µM)	CC(=O)Nc1cccc(NC(=O)Nc2cccc3ccccc23)c1
21.2 (≈ 79.3 µM)	C=CCn1c(NC(=O)c2ccco2)nc2ccccc21

solubility kinetic [µg/mL]	Structure (SMILES)
> 47.2	COc1ccc(C(=O)CCC(=O)Nc2cccnc2)c(OC)c1
> 48.8	CN(C)/C=C/C(=O)c1ccc(OCCN(C)c2ccccn2)cc1
15.2 (≈ 45.6 µM)	COc1cccc(C2N(Cc3ccccc3)C(=O)C2(F)F)c1OC (stereo not given)
1.3 (≈ 4.4 µM)	N#Cc1ccc(/C=C\c2nccc3c2[nH]c2ccccc23)cc1
2.1 (≈ 6.17 µM)	O=C(Cn1c(=S)[nH]c2ncccc2c1=O)NCCc1ccccc1
59.1 (≈ 146 µM)	COc1ccc(C(=O)O)cc1S(=O)(=O)NC1CCN(Cc2ccccc2)CC1
1.7 (≈ 5.57 µM)	COc1ccc(Nc2nc(C)nc3c2oc2ccccc23)cc1
> 49.3	COc1ccccc1NC(=O)C1CCN(C(=O)c2ccco2)CC1
14.6 (≈ 45 µM)	O=C(COc1ncnc2ccccc12)Nc1ccccc1[N+](=O)[O-]
2.6 (≈ 7.99 µM)	CC(Oc1ccccc1)C(=O)Nc1nc(-c2ccncc2)cs1 (stereo not given)
4.6 (≈ 12.7 µM)	O=C(NC1CC2CCCC(C1)N2C(=O)Nc1ccccc1)c1ccccc1 (stereo not given)
2.7 (≈ 9.4 µM)	Cc1ccc(S(=O)(=O)n2c(N)nc3ccccc32)cc1
> 47.4	C=CCn1c(=O)c2ccccc2n2c(SCC(=O)O)nnc12
30.5 (≈ 101 µM)	COc1cccc(NC(=O)COC(=O)/C=C/c2ccco2)c1
> 44.9	Cc1cnc(C(=O)OCC(=O)NC(C)c2ccccc2)cn1 (stereo not given)
6.2 (≈ 19.9 µM)	COc1ccc(NC(=O)Cc2c(Cl)cccc2Cl)cn1
9.3 (≈ 37.7 µM)	Cc1ccc(NC(=O)c2ccc(Cl)nc2)cc1
7.3 (≈ 35.6 µM)	c1ccc(-c2nccc3ccccc23)cc1
7.5 (≈ 29.8 µM)	Cc1ccoc1C(=O)Nc1ccc2ccccc2c1
> 42.2	O=C(Cc1ccc(Cl)c(Cl)c1)Nc1cccnc1
> 36.8	O=C(O)c1ccc(SCc2ccccc2)nc1
23.8 (≈ 102 µM)	O=C(O)c1ccccc1NCc1cccs1
> 53	CC(NC(=O)COC(=O)c1nc(Cl)ccc1Cl)c1ccccc1 (stereo not given)
< 0.7	CCOc1ccccc1NC(=O)c1cc(=O)c2ccccc2o1
